Results on 8 compounds are retold here after ChEMBL document CHEMBL1201862, “PubChem BioAssay data set” (2004).

The GI50 is the concentration giving 50% growth inhibition.

Test in all cases: DTP human tumour cell line panel, 48 h
For experiment [1], the system named is 786-0.
The subject of experiment [2] is ACHN.
Experiment [3] deals with DU-145.
Experiment [4] deals with EKVX.
Experiment [5] relates to HCT-15.
The test system of experiment [6] is HL-60.
The test system of experiment [7] is Hs-578T.
Experiment [8] concerns IGROV-1.
The test system of experiment [9] is MDA-MB-231.
In experiment [10] the test system is MDA-MB-435.
Experiment [11] deals with MDA-N.
Experiment [12] concerns MOLT-4.
Experiment [13] deals with NCI-H226.
Experiment [14] concerns PC-3.
Experiment [15] deals with RPMI-8226.
Experiment [16] concerns RXF 393.
In experiment [17] the test system is SF-268.
The test system of experiment [18] is UO-31.
Experiment [19] relates to SF-539.
Experiment [20] deals with A498.

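Compound exposure: 48 hours, 5 concentrations, 96-well plates. The concentration for 50% growth inhibition is given as GI50.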 The source made the active and inactive calls. Cut-off read from the data, not from the text of the source: active = GI50 up to about 1.1 µM and inactive = higher.

With `COC(=O)C(Cc1ccccc1)NC(=O)C(CCCNC(=N)N)NC(=O)OCc1ccccc1` (centres undefined), the GI50 in experiment [1] was > 100 µM (inactive); in [2] it was > 100 µM (inactive); in experiment [3] it was > 100 µM (inactive); in experiment [4], > 100 µM (inactive); in experiment [5], above 100 µM; in [6] it was > 100 µM (inactive). Besides, the GI50 in experiment [7], in experiment [8], in experiment [9], in experiment [10], in experiment [11] and in experiment [12] was > 100 µM (inactive) throughout. Moreover, the GI50 in [13], in [14], in experiment [15], in experiment [16], in [17] and in experiment [18] was > 100 µM (inactive) each time.
Regarding `Cc1cc(=O)n2nc(CSc3nnc(N)s3)sc2n1`, the GI50 in experiment [1] is > 100 µM (inactive); in experiment [2] it was > 100 µM (inactive); in experiment [3], > 100 µM (inactive); in experiment [4], > 100 µM (inactive); in experiment [5] it was above 100 µM; in [6], > 100 µM (inactive). The GI50 in [7], in experiment [8], in experiment [9], in experiment [10], in experiment [11] and in experiment [12] was > 100 µM (inactive) throughout. The GI50 in experiment [13], in experiment [14], in experiment [15], in experiment [16], in experiment [17] and in experiment [19] was > 100 µM (inactive) throughout. Besides, in [18], the GI50 is > 100 µM (inactive).
For the compound `COc1cc(/C=C2/SC(c3ccccc3)N(c3cccc([N+](=O)[O-])c3)C2=O)cc(OC)c1OC` (centres undefined), the GI50 was > 100 µM (inactive) in experiment [1]; > 100 µM (inactive) in experiment [20]; > 100 µM (inactive) in experiment [2]; > 100 µM (inactive) in experiment [3]; > 100 µM (inactive) in [4]; above 100 µM in [5]. For the same compound, the GI50 was 60.8 µM (inactive) in experiment [6]; > 100 µM (inactive) in experiment [7]; > 100 µM (inactive) in [9]; 26.9 µM (inactive) in experiment [10]; 25.1 µM (inactive) in experiment [11]; > 100 µM (inactive) in experiment [12]. Also, the GI50 in [13], in experiment [15], in experiment [16], in experiment [17], in [19] and in experiment [18] was > 100 µM (inactive) throughout.
For the compound `C(=C\Nc1ccc(-c2ccccc2)cc1)/C=N/c1ccc(-c2ccccc2)cc1`, the GI50 in experiment [1] was > 100 µM (inactive); in experiment [2] it was > 100 µM (inactive); in experiment [3] it was > 100 µM (inactive); in [4], > 100 µM (inactive); in [5] it was above 100 µM; in [6], > 100 µM (inactive). Further, the GI50 was > 100 µM (inactive) in [7]; > 100 µM (inactive) in [8]; 79.8 µM (inactive) in experiment [9]; > 100 µM (inactive) in [10]; > 100 µM (inactive) in [11]; > 100 µM (inactive) in [12]. Further, the GI50 in [13], in [14], in [15], in experiment [16], in experiment [17] and in experiment [19] was > 100 µM (inactive) in each case. The GI50 in experiment [18] was > 100 µM (inactive).
Consider `NNC(=O)c1ccccc1NC(=O)/C(=C/c1ccccc1O)NC(=O)c1ccccc1`, for which the GI50 in experiment [1] was 16.3 µM (inactive); in experiment [20] it was 94.6 µM (inactive); in [2] it was 17.9 µM (inactive); in experiment [3], > 100 µM (inactive); in [4], 33.6 µM (inactive); in experiment [5], 21.7 µM. Further, the GI50 in [6] was > 100 µM (inactive); in [7], 14.7 µM (inactive); in experiment [8], 14.5 µM (inactive); in [9] it was 20.3 µM (inactive); in experiment [10], 57.7 µM (inactive); in experiment [11], 4.56 µM (inactive). In addition, the GI50 was > 100 µM (inactive) in experiment [12]; 26.5 µM (inactive) in experiment [13]; > 100 µM (inactive) in experiment [15]; 63 µM (inactive) in experiment [16]; 12.8 µM (inactive) in experiment [17]; 20.1 µM (inactive) in experiment [19]. The GI50 in experiment [18] is 11.9 µM (inactive).
On to `S=C1CSc2c(ccc3ccccc23)N1`, for which the GI50 in [1] was > 100 µM (inactive); in experiment [2] it was > 100 µM (inactive); in experiment [3], > 100 µM (inactive); in experiment [4], 21.7 µM (inactive); in experiment [5] it was above 100 µM; in experiment [6], > 100 µM (inactive). Moreover, the GI50 in experiment [7] is 51.4 µM (inactive); in experiment [8] it was > 100 µM (inactive); in experiment [9] it was > 100 µM (inactive); in experiment [10], > 100 µM (inactive); in [11], > 100 µM (inactive); in experiment [12], 9.98 µM (inactive). Moreover, the GI50 in experiment [13] is > 100 µM (inactive); in experiment [14] it was > 100 µM (inactive); in experiment [15], > 100 µM (inactive); in experiment [16], 35.9 µM (inactive); in experiment [17], > 100 µM (inactive); in experiment [18], > 100 µM (inactive).
As to `COc1ccc([C@H](NC(=O)c2ccccc2)[C@@H](O)C(=O)O[C@H]2C[C@@]3(O)C(OC(=O)c4ccccc4)C4[C@](C)(C(=O)[C@H](OC(C)=O)C(=C2C)C3(C)C)[C@@H](O)C[C@H]2OC[C@@]42OC(C)=O)cc1` (some centres undefined), the 50% growth inhibitory concentration (GI50) is 0.0389 µM (active) in experiment [1]; 0.724 µM (active) in experiment [2]; 0.00248 µM (active) in experiment [3]; 0.22 µM (active) in experiment [4]; 0.366 µM in [5]; < 0.001 µM (active) in experiment [6]. In addition, the concentration for 50% growth inhibition (GI50) in experiment [7] was < 0.001 µM (active); in experiment [8], 0.00344 µM (active); in experiment [9] it was > 10 µM (inactive); in experiment [10], < 0.001 µM (active); in experiment [11], 0.00468 µM (active); in experiment [12] it was 0.00286 µM (active). In addition, the GI50 is 0.00673 µM (active) in experiment [13]; 0.00255 µM (active) in [14]; < 0.001 µM (active) in experiment [15]; 0.0412 µM (active) in [16]; 0.00415 µM (active) in [17]; 0.00112 µM (active) in experiment [19]. Further, in experiment [18], the GI50 was 0.126 µM (active).
For the compound `OC(c1cccs1)c1cc2ccccc2s1` (centres undefined), the GI50 was > 10 µM (inactive) in [1]; > 10 µM (inactive) in [2]; > 10 µM (inactive) in experiment [3]; > 10 µM (inactive) in [4]; above 10 µM in experiment [5]; > 10 µM (inactive) in experiment [6]. Also, the GI50 in experiment [7], in experiment [8], in experiment [9], in [10], in [11] and in experiment [12] was > 10 µM (inactive) in each case. In addition, the GI50 in [13], in experiment [14], in [15], in [16], in experiment [17] and in experiment [19] was > 10 µM (inactive) throughout. Further, in [18], the GI50 is > 10 µM (inactive).
